Data reported in patent US20080063628A1, “METHODS TO PROMOTE CELL DIFFERENTIATION” (priority 2006, published 2008).

Assays:
Type in all cases: cell-based, human
[1] = test system: Neonatal fibroblasts (Hs27); experiment: Trichostatin A 48 h treatment, gene expression by Real-Time PCR (Example 1)
Method: (§1) Neonatal fibroblasts, also designated Hs27, were derived from human foreskins and obtained from the American Type Culture Collection (ATCC). Panc-1 cells are a transformed cell line derived from a pancreatic epitheloid carcinoma of ductal origin, also obtained from ATCC.
(§2) Fibroblasts or Panc-1 cells were seeded into a 6-well tissue culture plate at a density of 50,000 cells/cm^2. Both cell types were cultured in medium containing 10% FBS and DMEM under standard cell culture conditions (37° C., 5% CO2). After reaching confluence (2-3 days), trichostatin A diluted in dimethyl sulfoxide (DMSO) and medium was added at either 2.5 μM or 5 μM to the cultures. Parallel cultures were treated with an equivalent concentration of DMSO as a vehicle control.
(§3) RNA samples were obtained from the treated cultures 48 hours after the addition of trichostatin A or DMSO. The culture medium was removed, the cells were washed with phosphate buffered saline (PBS), and RLT Lysis buffer containing β-mercaptoethanol (Qiagen) was added. The samples were homogenized using Qiashredder columns (Qiagen), and RNA was purified using the RNeasy Mini Kit (Qiagen). RNA quantity and quality was determined using a spectrophotometer, and cDNA was made using the iScript cDNA synthesis kit (BioRad).
(§4) The expression levels of Sox17, HNF-3 beta, Pdx-1, insulin, and glucagon were determined by Real-Time PCR (RT-PCR), as described in Example 15. Samples of 20 ng cDNA were used in each reaction. RT-PCR reactions were performed on the Applied Biosystems 7500, and data was analyzed using the accompanying software. Human pancreas cDNA was included as a positive control. Results were normalized against GAPDH expression levels.
(§5) Real-time PCR amplifcation and quantitative analysis. Unless otherwise stated, all reagents were purchased from Applied Biosystems. Real-time PCR reactions were performed using the ABI PRISM™ 7500 Sequence Detection System. TAQMAN™ FAST UNIVERSAL PCR MASTER MIX™ (ABI, CA) was used with 20 ng of reverse transcribed RNA in a total reaction volume of 20 μl. Each cDNA sample was run in duplicate to allow correction of pipetting errors. Primers and FAM-labeled TAQMAN™ probes were used at concentrations of 200 nM. The level of expression for each target gene was normalized using the pre-developed Applied Biosystem's human glyceraldehyde-3-phosphate dehydrogenase (GAPDH) endogenous control kit. Primers and probes were designed using either ABI PRISM PRIMER EXPRESS™ software or a pre-developed ABI gene analysis kit. For each gene, either one of the primers or the probe were designed to be exon-boundary spanning. This eliminated the possibility of the primers/probe binding to any genomic DNA present. The primer and probe sets are listed as follows: Pdx-1 (Hs00426216), Insulin (Hs00355773), glucagon (Hs00174967), and FoxA2 (HNF 3-beta) (Hs00232764). The remaining primers were designed using the PRIMERS program (ABI, CA). After an initial 95° C. incubation for 20 sec, samples were cycled 40 times in two stages: a denaturation step at 95° C. for 3 sec, followed by an annealing/extension step at 60° C. for 30 sec.
(§6) For each primer/probe set, a cycle time value was determined as the cycle number at which the fluorescence intensity of the PCR reaction reached a specific value in the middle of the exponential region of amplification. An increase in expression of a gene corresponded to a decrease in the number of cycles required for the fluorescence intensity to reach this value.

[2] = test system: Panc-1 cells; experiment: as above; settings: for GAPDH gene expression / HNF-3 beta gene expression / Insulin gene expression / PDX-1 gene expression / Sox17 gene expression / glucagon gene expression: 48 hours
Method: as §1, §2, §3, §4, §5, §6

[3] = test system: second amniotic fluid-derived cell line; experiment: Two sequential low dose trichostatin A treatments, gene expression by RT-PCR (Example 7); settings: 0.5 μM, after 72 hours, remainder of the experiment
[4] = Panc-1 cells treated for 48 hours

For `CC(/C=C/C(=O)NO)=C\[C@@H](C)C(=O)c1ccc(N(C)C)cc1` [trichostatin A], the GAPDH gene expression ([1]; 2.5 μM) was “+++ (detectable at less than 35 cycles by RT-PCR with SE less than 0.9)”, the HNF-3 beta gene expression ([1]; 2.5 μM) was “+++ (detectable at less than 35 cycles by RT-PCR with SE less than 0.9)” and the Insulin gene expression ([1]; 2.5 μM) was “nd (not detectable at >40 cycles by RT-PCR)”. The PDX-1 gene expression ([1]; 2.5 μM) was “+ (detectable at greater than 35–40 cycles by RT-PCR)”, the Sox17 gene expression ([1]; 2.5 μM) was “+++ (detectable at less than 35 cycles by RT-PCR with SE less than 0.9)” and the glucagon gene expression ([1]; 2.5 μM) was “+++ (detectable at less than 35 cycles by RT-PCR with SE less than 0.9)”. For the same compound, the GAPDH gene expression ([1]; 5.0 μM) was “+++ (detectable at less than 35 cycles by RT-PCR with SE less than 0.9)”, the HNF-3 beta gene expression ([1]; 5.0 μM) was “+++ (detectable at less than 35 cycles by RT-PCR with SE less than 0.9)” and the Insulin gene expression ([1]; 5.0 μM) was “nd (not detectable at >40 cycles by RT-PCR)”. The PDX-1 gene expression ([1]; 5.0 μM) was “+ (detectable at greater than 35–40 cycles by RT-PCR)”, the Sox17 gene expression ([1]; 5.0 μM) was “+++ (detectable at less than 35 cycles by RT-PCR with SE less than 0.9)” and the glucagon gene expression ([1]; 5.0 μM) was “+++ (detectable at less than 35 cycles by RT-PCR with SE less than 0.9)”. The GAPDH gene expression ([2]; 2.5 μM) was “+++ (detectable at less than 35 cycles by RT-PCR with SE less than 0.9)”, the HNF-3 beta gene expression ([2]; 2.5 μM) was “+++ (detectable at less than 35 cycles by RT-PCR with SE less than 0.9)” and the Insulin gene expression ([2]; 2.5 μM) was “+ (detectable at greater than 35–40 cycles by RT-PCR)”. The PDX-1 gene expression ([2]; 2.5 μM) was “+++ (detectable at less than 35 cycles by RT-PCR with SE less than 0.9)”, the Sox17 gene expression ([2]; 2.5 μM) was “+++ (detectable at less than 35 cycles by RT-PCR with SE less than 0.9)” and the glucagon gene expression ([2]; 2.5 μM) was “+++ (detectable at less than 35 cycles by RT-PCR with SE less than 0.9)”. The GAPDH gene expression ([2]; 5.0 μM) was “+++ (detectable at less than 35 cycles by RT-PCR with SE less than 0.9)”, the HNF-3 beta gene expression ([2]; 5.0 μM) was “+++ (detectable at less than 35 cycles by RT-PCR with SE less than 0.9)” and the Insulin gene expression ([2]; 5.0 μM) was “+ (detectable at greater than 35–40 cycles by RT-PCR)”. The PDX-1 gene expression ([2]; 5.0 μM) was “+++ (detectable at less than 35 cycles by RT-PCR with SE less than 0.9)”, the Sox17 gene expression ([2]; 5.0 μM) was “+++ (detectable at less than 35 cycles by RT-PCR with SE less than 0.9)” and the glucagon gene expression ([2]; 5.0 μM) was “+++ (detectable at less than 35 cycles by RT-PCR with SE less than 0.9)”. The “Pdx-1 expression with 5.0 μm versus 2.5 μM trichostatin A” value [2, 4] was 11 times higher, the “Sox-17 expression with 5.0 μm versus 2.5 μM trichostatin A” value [2, 4] was 60 times higher and the “glucagon expression with 5.0 μm versus 2.5 μM trichostatin A” value [2, 4] was 5 times higher. The “HNF-3 beta RT-PCR detection cycle” value [3] was 37 cycles.
